According to patent US12173039B1, “TPL2 inhibiting agents, uses thereof, and detection of TPL2” (Washington University, priority 2021, dated 2024):

Legend:
KP2 cells = assay: Anchorage independent soft agar growth assay, KP2 cells; assay type: cell-based, murine
Description: Cells were seeded at 5000-15000 cells in 0.3% noble agar-DMEM suspension per well, in triplicate, in 24 well plate. For drug treatment, compound was added to cell suspension at 1× concentration. Seeded cells were fed with fresh 0.6% agar-DMEM mix once every 7-12 days. […] After 3-6 weeks, colonies were counted under microscope and imaged. Colony count was normalized to control and graphed in GraphPad Prism v7/8.

[1] = tested on: p-FAK, p-ERK, total FAK, and FoxM1; assay: Reverse-phase protein array (RPPA) on HPNE-KRAS^G12D cells overexpressing IRAK4; assay type: cell-based, human
Description: All lysates were prepared according to sample preparation guidelines provided by MD Anderson Cancer Center (MDACC). HPNE-KRAS^G12D were infected with retroviral particles containing AU1-tagged IRAK4 WT or vector control in presence of 8 μg mL-1 polybrene, selected with blasticidin (10 μg mL-1) and RPPA was performed. For drug treatment, IRAK4 overexpressing cells were treated with AS2444697 2 μM or vehicle (DMSO) for 24 hours. For evaluation of TPL2 WT and E188K, 293T cells were transfected in duplicates with Vector (pbabe-puro), TPL2 WT or TPL2 E188K along with equal amount of polyethylenimine. Cells were harvested 48 hrs post-transfection and lysates were prepared and sent for RPPA. For both RPPA experiments, lysates were quantified by Bradford assay (Thermo Scientific), equalized for concentration, and denatured and reduced by adding 4×SDS sample buffer (without bromophenol blue) and boiling for 5 minutes.

p-TPL2 = assay: Immunoblot of activated ectopic TPL2 (anti-p-TPL2 antibody); assay type: cell-based, human; settings: Pa01C and HPAC cells overexpressing TPL2
Description: Standard immunoblotting procedure was followed. Cells were washed twice with ice-cold 1×PBS and lysed with ice-cold triton-X lysis buffer (25 mM Tris, pH 7.4, 150 mM NaCl, 5 mM EDTA, 1% Triton-X) containing 1× protease (10 μg mL-1 leupeptin, 700 ng mL-1 pepstatin, 170 ng mL-1 aprotinin, 1 mM PMSF) and phosphatase (10 mM NaF, 1 mM Na3VO4, 1 mM Na4P2O^7, 5 mM Na b-glycerophosphate) inhibitors. Lysates were quantified by Bradford assay (Thermo Scientific), normalized for concentration, and reduced and denatured with 6×SDS sample buffer followed by boiling for 5 minutes. 20-40 μg of protein per sample was resolved by SDS-PAGE, blotted on PVDF membrane and probed with primary antibodies (Cell Signaling Technologies: p-ERK1/2 (#4370), p-MEK1/2 (#9154), ERK1/2 (#4695), MEK1/2 (#8727), p-p105 (#4806), NFS2KB1 p105/p50 (#3035), p-IRAK4 (#11927), IRAK4 (#4363), ubiquitin (#43124), anti-HA (#3724), p-p90RSK (#11989), RSK1/2/3 (#9355), p-TPL2 (#4491), PARP (#9532), p-B-RAF S445 (#2696), BRAF (#9433S). Santa Cruz Biotechnology: GAPDH (#sc-32233), p-p65 […] (#sc101752). Thermo Fisher Scientific: p-55 TPL2 (#PA5-36635). EMD Millipore: IRAK4 (#07-418). R&D systems: TPL2/MAP3K8 (#MAB4586). Novus Biologicals: anti-AU1 (#NB600-453). Abcam: p-p65 […] (#ab194726)). […]

[2] = tested on: serum-response element (SRE); assay: Serum-response element (SRE) luciferase reporter assay; assay type: cell-based, human; settings: HPAC cells
Description: Cells stably expressing plasmid encoding serum-response-element (SRE) or NFKB promoter driven Firefly luciferase and constitutive Renilla luciferase were seeded at equal density per well and treatment was initiated the next day for 16-24 duration. Alternatively, 293T reporter cells were transfected in duplicate or triplicate with 1 μg of appropriate plasmid DNA. Medium was replaced 16-18 hours later and at 48 hours post-transfection reporter activity was measured using Dual-Glo® Luciferase Assay System. Data was acquired using SpectraMax i3Microplate Reader and analysis was performed by calculating ratio of firefly:renilla. Values were normalized to control and graphed using GraphPad Prism v7/8 software.

HEK T/tH-KRAS^G12V cells = assay: Drug response and viability assay, HEK T/tH-KRAS^G12V with or without MEK1-5DD; assay type: cell-based, human; settings: 96 hours, GI50
Description: Cells were seeded at 1500-2500 cells per well in triplicates, in 96 well format. Next day, appropriate inhibitor was added in serial dilution from 1.00×102 μM or indicated single doses. Vehicle (DMSO) was added to match volume of inhibitor used for highest concentration. After 96-120 hours, 5× AlamarBlue® reagent (resazurin sodium salt, Sigma) was added to wells and incubated for 2-4 hours. Fluorescence at 585 nm (excitation 555 nm) was measured by SpectraMax i3 Microplate Reader. Raw values were normalized to vehicle, analyzed and graphed using GraphPad Prism v7/8 software.

**Q.** Which “AI growth in soft agar” value (KP2 cells) does the source give for `CC[C@@H]1[C@H](F)C(=O)N[C@@H]1COc1nccc2cc(C(N)=O)c(OC)cc12` [PF06650833, 1-(((2S,3S,4S)-3-ethyl-4-fluoro-5-oxopyrrolidin-2-yl)methoxy)-7-methoxyisoquinoline-6-carboxamide] here?
**A.** dose-dependently suppressed

**Q.** And the “MAPK target proteins (RPPA)” value [1]?
**A.** suppressed

**Q.** And the “IRAK4-induced increase in p-FAK, p-ERK, total FAK, and FoxM1 (RPPA)” value ([1]; 24 hours)?
**A.** reversed

**Q.** And the “activated state of ectopically expressed TPL2 (p-TPL2)” value (p-TPL2)?
**A.** dose-dependently deactivated

**Q.** What about the “SRE-driven luciferase reporter activity” value [2] of the same compound?
**A.** dose-dependently reduced

**Q.** And the “loss of sensitivity to growth inhibition on expression of MEK1-5DD” value (HEK T/tH-KRAS^G12V cells)?
**A.** approximately 3 fold
